Experiments:
[1] = pharmacokinetics in SD rats orally treated with GA (200 mg/kg), LC-MS/MS; format: in vivo, Sprague Dawley (SD) rats; details: female SD rats, GA 200 mg/kg oral, over 12 h
Method: (§1) Female SD rats or EHBRs (9-week-old) were anesthetized by an intraperitoneal (i.p.) injection of urethane (1 g/kg) and their jugular veins were exposed. […] Aliquots (10 µl) of plasma or urine were mixed with 20 µl of subtilisin (0.91 U/ml), incubated at 37 °C for 30 min, followed by the addition of 70 µl of astragalloside IV solution (1 µg/ml in ethanol containing 0.5% formic acid), and kept at −20 °C for 30 min.

[2] = pharmacokinetics in EHBRs orally treated with GA (200 mg/kg), LC-MS/MS; format: in vivo, Eisai Hyperbilirubinemia rats (EHBRs)
Method: as §1

OAT1 = target: T1, OAT1 (Homo sapiens, UniProt Q4U2R8); assay: uptake by MDCK II cells stably expressing OAT1; format: in vitro ADME; details: pooled plasma of male EHBRs (79 µM compound 1), pH 5.5, 37 °C, 15 min
T1 construct: expressed in transfected cells
T1 sequence (Q4U2R8 1-563): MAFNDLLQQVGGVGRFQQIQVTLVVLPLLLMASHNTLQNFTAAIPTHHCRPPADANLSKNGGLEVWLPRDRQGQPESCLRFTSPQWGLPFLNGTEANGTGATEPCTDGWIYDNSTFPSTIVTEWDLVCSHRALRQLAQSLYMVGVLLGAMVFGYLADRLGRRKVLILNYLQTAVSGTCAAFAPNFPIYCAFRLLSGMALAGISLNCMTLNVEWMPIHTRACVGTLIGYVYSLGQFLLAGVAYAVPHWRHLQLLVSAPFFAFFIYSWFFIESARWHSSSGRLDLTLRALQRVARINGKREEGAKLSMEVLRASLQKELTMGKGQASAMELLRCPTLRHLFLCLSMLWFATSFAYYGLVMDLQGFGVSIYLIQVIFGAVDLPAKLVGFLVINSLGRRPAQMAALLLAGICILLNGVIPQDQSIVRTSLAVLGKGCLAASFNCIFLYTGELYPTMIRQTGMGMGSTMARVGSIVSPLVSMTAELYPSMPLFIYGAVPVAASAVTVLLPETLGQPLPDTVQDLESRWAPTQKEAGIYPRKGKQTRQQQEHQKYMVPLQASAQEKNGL
Method: (§2) MDCKII cells were cultured in Dulbecco’s modified Eagle’s medium containing 10% FBS, 100 U/ml penicillin, and 100 µg/ml streptomycin at 37 °C in 5% CO2. Plasmids carrying the cDNAs encoding human organic anion transporter (OAT) 1 and 3 were prepared using the pCI-neo mammalian expression vector, as described previously. Using the plasmids, MDCKII cells stably expressing OAT1 and 3 were prepared as described previously, and tested for their functional expressions by evaluating the transports of [^3H]p-aminohippurate and [^3H]estrone sulfate, respectively, as probe substrates.
(§3) For the transport assay, the cells were seeded in 24-well plates (1 × 10^5 cells/well), and incubated for 24 h. The cells were pre-incubated for 15 min at 37 °C with 0.25 ml of the incubation medium described above. Two ml of pooled female or male EHBR plasma samples was lyophilized, and dissolved in 2 ml of 10 mM MES (pH 5.5). The cells were then incubated further at 37 °C for 15 min with 0.1 ml of pooled female or male EHBR plasma samples. The surface of the cells was washed 3 times with 0.5 ml of ice-cold PBS, and then the contents were extracted with 0.2 ml of ethanol. The cell residues were dissolved by 0.1 ml of 1 M NaOH, and after neutralization by adding 0.1 ml of 1 M HCl, the concentrations of protein were measured as mentioned above.

OAT3 = target: T2, OAT3 (Homo sapiens, UniProt Q8TCC7); assay: uptake by MDCK II cells stably expressing OAT3; format: in vitro ADME; details: pooled plasma of male EHBRs (79 µM compound 1), pH 5.5, 37 °C, 15 min
T2 construct: expressed in transfected cells
T2 sequence (Q8TCC7 1-542): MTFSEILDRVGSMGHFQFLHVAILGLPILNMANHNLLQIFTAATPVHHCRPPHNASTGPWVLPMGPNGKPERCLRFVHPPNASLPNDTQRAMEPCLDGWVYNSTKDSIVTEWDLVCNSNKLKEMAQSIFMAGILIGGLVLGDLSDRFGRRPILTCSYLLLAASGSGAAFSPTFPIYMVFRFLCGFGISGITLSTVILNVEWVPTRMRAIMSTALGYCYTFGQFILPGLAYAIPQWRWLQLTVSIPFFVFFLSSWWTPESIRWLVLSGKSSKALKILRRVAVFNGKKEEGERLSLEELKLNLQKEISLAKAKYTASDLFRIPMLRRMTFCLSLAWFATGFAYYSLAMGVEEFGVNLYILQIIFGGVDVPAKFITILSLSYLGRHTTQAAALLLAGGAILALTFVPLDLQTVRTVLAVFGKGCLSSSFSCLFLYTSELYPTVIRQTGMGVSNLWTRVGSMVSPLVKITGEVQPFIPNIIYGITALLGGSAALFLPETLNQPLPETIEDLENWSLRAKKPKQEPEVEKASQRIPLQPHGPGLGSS
Method: as §2, §3

[3] = concentrations in pooled plasma of EHBRs 12 h after oral GA (200 mg/kg); format: in vivo; details: Eisai Hyperbilirubinemia rats (EHBR), rat
Method: Three female and three male EHBRs (9-week-old, respectively) were injected with urethane (1 g/kg, i.p.), and orally treated with an aqueous GA aqueous suspension (200 mg/kg in 1% CMC). Twelve h after the treatment, blood was collected from the abdominal vena cava, and the plasma samples of each sex rat were pooled.
LC-ESI(+)MS/MS analysis was conducted at the following conditions: column, Scherzo SM-C18 (3 μm, 3 mm i.d. ×100 mm, Imtakt, Kyoto, Japan); mobile phase, (A) 5 mM AcNH4, (B) 125 mM AcNH4/acetonitrole 1:4, at a flow rate of 0.3 ml/min, with the following gradient profile: A:B = 50:50–0:100 (0–3 min) and 0:100 (3–10 min); compound 1 (5.8 min), astragaloside IV (3.0 min), GA (8.7 min); the transitions monitored were the same as described in the previous section. Linear regressions over the concentration range 0.08–2 µM for compound 1 and 3.2 nM–2 µM for GA were examined using the peak-area ratio of the compounds to their internal standards and the least-squares method (r^2 > 0.98).

serum albumin = assay: binding assay with serum albumin (ultrafiltration of pooled plasma); format: in vitro ADME, rat; details: pooled plasma of EHBRs, filtrate undetectable by LC-MS/MS
Method: In total 100 µl of pooled plasma samples from female EHBRs described above were ultra-centrifugated using Centricut W-20 (Molecular weight cut off 2 × 10^4, Kurabo Industries Ltd., Osaka, Japan) according to the manufacturer’s instruction, and the concentration of compound 1 in the filtrate was measured by using LC-MS/MS described in uptake study section.

detection in plasma of SD rats [1]: not detected
urinary elimination in SD rats [1]: not detected
plasma concentration, times higher than that of 3MGA ([2]; EHBRs orally treated with GA): about 10 times
concentration at 12 h ([2]; Eisai Hyperbilirubinemia rats (EHBR), rat, plasma, female EHBRs, GA 200 mg/kg oral, 12 h, read-out: plasma concentration 12 h after GA treatment): 5.3 µM
urinary elimination in EHBRs ([2]; female EHBRs, GA 200 mg/kg oral, over 12 h): eliminated via urine
uptake by cells expressing OAT1 compared with mock cells (OAT1): higher than that by mock cells
uptake by cells expressing OAT3 compared with mock cells (OAT3): higher than that by mock cells
concentration at 12 h ([3]; female, read-out: concentration in pooled plasma, female EHBRs): 15 µM
concentration at 12 h ([3]; male, read-out: concentration in pooled plasma, male EHBRs): 79 µM
albumin-binding ratio in plasma (serum albumin): more than 99.9%
Compound: CC1(C(=O)OC2OC(C(=O)O)C(O)C(O)C2O)CC(O)C2(C)CCC3(C)C(=CC(=O)C4C5(C)CCC(OS(=O)(=O)O)C(C)(C)C5CCC43C)C2C1 (stereo not drawn) [Compound 1, 22α-hydroxy-18β-glycyrrhetyl-3-O-sulfate-30-glucuronide]
